The structures appear in SMILES notation.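 Briefly, cells in 96-well plates were exposed to five compound concentrations for 48 h, and endpoints were estimated by linear interpolation. TGI is the concentration that stops growth completely.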 Some results are limits rather than exact numbers.

TGI data for seven compounds are collected here from PubChem BioAssay (NCI).

What all share (assay): NCI tumour cell line growth inhibition, 48 h
For assay [1], the system named is ACHN renal.
Assay [2] concerns DU-145 prostate.
Assay [3] concerns HCT-15 colon.
Assay [4] concerns HOP-92 NSCLC.
In assay [5] the test system is K-562 leukemia.
The test system of assay [6] is MDA-MB-435.
For assay [7], the system named is NCI-H23 lung.
The subject of assay [8] is NCI-H460 lung.
Assay [9] has as its system PC-3 prostate.
The subject of assay [10] is SK-MEL-2 melanoma.
Assay [11] deals with SN12C renal.
Assay [12] has as its system SNB-19 CNS.
For assay [13], the system named is SR leukemia.
Assay [14] has as its system T-47D breast.
Assay [15] concerns U251 CNS.
In assay [16] the test system is UACC-62 melanoma.
The subject of assay [17] is HT29 colon.
The test system of assay [18] is MDA-MB-231 breast.
Assay [19] has as its system RXF 393 renal.
Assay [20] concerns NCI-H522 lung.

On to `N#Cc1c(N2CCOCC2)ncn(-c2ccccc2)c1=O`, for which the TGI in assay [1], in assay [2], in [3], in [4], in [5] and in assay [6] was over 100 µM each time. Also, the TGI in [7], in assay [8], in assay [9], in assay [10], in assay [11] and in assay [12] was over 100 µM each time. In addition, the TGI in assay [13], in assay [14], in assay [15] and in assay [16] was over 100 µM throughout.

Turning to `O=C(c1nsc(Cl)c1Cl)N1CCCCC1`, the TGI in [2], in assay [3], in [17], in assay [5], in assay [18] and in assay [6] was over 100 µM in each case. Also, the TGI in [7], in assay [9], in assay [19], in [11], in [12] and in assay [13] was over 100 µM throughout. Besides, the TGI in assay [15] and in assay [16] was over 100 µM in each case.

Turning to `c1ccc(C2CC(N3CCOCC3)=Nc3ccccc3N2)cc1` (stereo unspecified), the TGI in assay [1], in assay [2], in assay [3], in assay [17], in [5] and in [18] was over 100 µM throughout. Moreover, the TGI in assay [6], in assay [7], in [8], in [20], in [9] and in assay [19] was over 100 µM throughout. Moreover, the TGI in [10], in [11], in assay [12], in assay [15] and in assay [16] was over 100 µM in each case.

For `Cc1cc2c3c(ccc4ncc(c43)CN2c2ccc(NS(C)(=O)=O)cc2)[nH]1`, the TGI was over 100 µM in assay [1]; over 100 µM in assay [2]; over 100 µM in [3]; 92.2 µM in assay [4]; over 100 µM in assay [17]; over 100 µM in [5]. The TGI in [18] was 68.1 µM; in [6], over 100 µM; in assay [7], over 100 µM; in assay [8], over 100 µM; in [20] it was over 100 µM; in assay [9] it was over 100 µM. The TGI in assay [19] is over 100 µM; in assay [10], over 100 µM; in [12], 10.4 µM; in assay [15], over 100 µM; in [16], over 100 µM.

Turning to `CC(C)(C)OC(=O)C1/C(=C/CO)CN1C(=O)OC(C)(C)C` (stereo unspecified), the TGI in assay [1], in assay [3], in assay [4], in [17], in assay [5] and in assay [6] was over 100 µM each time. In addition, the TGI in assay [7], in assay [8], in [9], in assay [10], in [11] and in assay [12] was over 100 µM each time. The TGI in assay [13] and in assay [16] was over 100 µM throughout.

With `CC(C)(C)SC1=CCC[C@@H](P(=O)(c2ccccc2)c2ccccc2)[C@@H]2CCC[C@@H]12`, the TGI in assay [1] is 30.6 µM; in assay [2], 39.8 µM; in assay [3], 33 µM; in [4], 28.9 µM; in [17] it was 28.3 µM; in assay [5], 51.6 µM. The TGI in [6] was determined as 33.1 µM; in [7], 33.6 µM; in assay [8] it was 30.8 µM; in assay [20] it was 31.3 µM; in assay [9], 28.6 µM; in [19] it was 29.9 µM. The TGI in [10] came to 31.8 µM; in [11], 29.3 µM; in [12], 30.9 µM; in [13] it was 43.6 µM; in assay [14], 33.3 µM; in assay [15] it was 33.3 µM. Besides, the TGI in assay [16] came out at 24.9 µM.

For `CCOC(=O)Cn1nc2ccc(Nc3nc4ccccc4nc3C(=O)OCC)cc2n1`, the TGI in assay [1], in assay [2], in assay [3], in [4], in assay [17] and in assay [5] was over 100 µM each time. Further, the TGI in assay [6] was over 100 µM; in [7], over 100 µM; in [8], over 100 µM; in assay [20] it was over 100 µM; in assay [9], over 100 µM; in [19] it was 58.2 µM. Further, the TGI in assay [10], in assay [11], in assay [12], in assay [13], in assay [14] and in assay [15] was over 100 µM each time. The TGI in assay [16] is over 100 µM.
